The target of the experiment is T1, CaV2.2 (Homo sapiens, UniProt Q00975).
T1 construct: expressed in transfected cells; host or cells: HEK293
The experiment can be described thus: VIPR optical membrane potential assay with electrical stimulation. The format is cell-based. The essentials:
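HEK293 cells stably expressing CaV2.2, stained with CC2-DMPE (10 μM final) and oxonol voltage-sensitive dyes, compound added with BaCl2. Membrane potential response evoked by 3-5 s electrical stimulation. Read as background-subtracted 460/580 nm emission ratio, response R=Rf/Ri, normalized to mibefradil positive and no-drug negative controls.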

Setting [1] is: Table 3, biological assay data, read-out: IC50.

Where two headings read alike, the source gives them in different places. A value given as a limit tells only on which side of the number the result lay.

T1 sequence (Q00975 whole entry): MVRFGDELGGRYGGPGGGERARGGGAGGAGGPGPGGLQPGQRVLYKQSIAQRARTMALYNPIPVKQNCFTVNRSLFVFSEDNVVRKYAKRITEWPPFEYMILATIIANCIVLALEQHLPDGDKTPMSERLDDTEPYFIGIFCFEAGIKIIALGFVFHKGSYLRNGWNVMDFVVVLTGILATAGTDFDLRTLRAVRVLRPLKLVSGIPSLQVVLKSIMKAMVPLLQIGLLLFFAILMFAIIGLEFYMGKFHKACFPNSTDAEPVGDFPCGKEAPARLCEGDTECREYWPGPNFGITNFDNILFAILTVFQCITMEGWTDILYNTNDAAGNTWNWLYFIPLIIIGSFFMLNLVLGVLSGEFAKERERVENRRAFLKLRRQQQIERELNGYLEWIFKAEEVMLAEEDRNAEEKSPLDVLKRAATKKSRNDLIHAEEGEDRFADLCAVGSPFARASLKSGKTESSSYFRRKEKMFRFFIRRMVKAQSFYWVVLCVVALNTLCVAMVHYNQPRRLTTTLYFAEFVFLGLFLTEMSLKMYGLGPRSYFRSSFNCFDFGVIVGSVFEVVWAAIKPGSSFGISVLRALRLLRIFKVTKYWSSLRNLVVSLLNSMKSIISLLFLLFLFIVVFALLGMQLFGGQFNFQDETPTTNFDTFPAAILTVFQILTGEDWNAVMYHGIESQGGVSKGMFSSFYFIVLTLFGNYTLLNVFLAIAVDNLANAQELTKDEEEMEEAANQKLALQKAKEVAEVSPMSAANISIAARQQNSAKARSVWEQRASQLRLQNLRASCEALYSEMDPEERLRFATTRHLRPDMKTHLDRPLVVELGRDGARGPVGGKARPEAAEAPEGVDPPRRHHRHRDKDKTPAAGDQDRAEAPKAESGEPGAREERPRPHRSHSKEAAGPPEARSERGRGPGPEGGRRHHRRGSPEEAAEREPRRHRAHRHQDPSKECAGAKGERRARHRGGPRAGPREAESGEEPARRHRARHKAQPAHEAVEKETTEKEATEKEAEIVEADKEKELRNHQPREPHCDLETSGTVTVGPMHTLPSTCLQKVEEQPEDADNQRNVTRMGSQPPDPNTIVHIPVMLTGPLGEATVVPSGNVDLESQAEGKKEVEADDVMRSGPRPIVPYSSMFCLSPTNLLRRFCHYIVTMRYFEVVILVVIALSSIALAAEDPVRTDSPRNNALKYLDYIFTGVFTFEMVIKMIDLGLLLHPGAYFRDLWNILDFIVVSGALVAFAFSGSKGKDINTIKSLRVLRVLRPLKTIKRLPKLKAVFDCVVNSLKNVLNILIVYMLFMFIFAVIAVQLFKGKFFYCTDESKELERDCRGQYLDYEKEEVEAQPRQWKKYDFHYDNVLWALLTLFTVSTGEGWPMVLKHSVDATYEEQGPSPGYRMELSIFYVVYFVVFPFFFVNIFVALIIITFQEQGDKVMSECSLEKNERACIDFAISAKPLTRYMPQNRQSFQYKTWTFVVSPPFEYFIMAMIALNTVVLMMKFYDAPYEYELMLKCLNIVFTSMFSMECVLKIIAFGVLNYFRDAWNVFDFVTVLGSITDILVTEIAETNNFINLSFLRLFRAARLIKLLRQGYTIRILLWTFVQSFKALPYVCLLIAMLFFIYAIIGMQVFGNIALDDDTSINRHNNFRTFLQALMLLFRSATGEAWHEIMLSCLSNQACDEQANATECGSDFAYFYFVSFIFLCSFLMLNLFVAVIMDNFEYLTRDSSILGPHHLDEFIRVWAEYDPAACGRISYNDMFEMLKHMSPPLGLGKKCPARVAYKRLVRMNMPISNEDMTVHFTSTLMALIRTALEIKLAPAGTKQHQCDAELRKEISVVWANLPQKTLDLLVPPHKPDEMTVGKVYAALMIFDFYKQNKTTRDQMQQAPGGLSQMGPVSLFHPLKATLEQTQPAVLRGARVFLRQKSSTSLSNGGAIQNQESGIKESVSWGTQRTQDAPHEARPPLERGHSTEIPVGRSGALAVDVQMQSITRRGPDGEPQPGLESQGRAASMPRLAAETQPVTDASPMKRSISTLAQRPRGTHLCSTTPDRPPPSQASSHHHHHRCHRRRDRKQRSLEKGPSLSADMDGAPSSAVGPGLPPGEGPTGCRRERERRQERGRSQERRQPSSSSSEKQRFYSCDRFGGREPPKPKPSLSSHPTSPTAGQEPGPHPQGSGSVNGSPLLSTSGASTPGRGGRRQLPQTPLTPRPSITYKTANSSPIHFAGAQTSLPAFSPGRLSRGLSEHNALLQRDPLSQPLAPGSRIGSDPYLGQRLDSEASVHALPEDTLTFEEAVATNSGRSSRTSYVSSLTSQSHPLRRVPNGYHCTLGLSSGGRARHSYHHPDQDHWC
T1 sequence (P54284 whole entry partner): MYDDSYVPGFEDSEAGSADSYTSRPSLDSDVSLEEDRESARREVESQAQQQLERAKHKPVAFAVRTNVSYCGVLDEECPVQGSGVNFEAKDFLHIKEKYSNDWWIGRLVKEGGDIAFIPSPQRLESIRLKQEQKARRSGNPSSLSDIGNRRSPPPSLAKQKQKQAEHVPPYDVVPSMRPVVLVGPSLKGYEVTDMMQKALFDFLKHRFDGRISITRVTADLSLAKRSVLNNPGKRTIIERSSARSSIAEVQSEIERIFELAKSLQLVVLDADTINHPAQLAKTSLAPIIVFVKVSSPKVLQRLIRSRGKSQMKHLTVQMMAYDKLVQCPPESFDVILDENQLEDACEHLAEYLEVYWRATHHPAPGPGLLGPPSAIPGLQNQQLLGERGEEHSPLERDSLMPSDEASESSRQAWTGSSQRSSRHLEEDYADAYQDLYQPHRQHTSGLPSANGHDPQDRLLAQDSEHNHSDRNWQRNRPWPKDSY
T1 sequence (P54289 25-946 partner limits assumed): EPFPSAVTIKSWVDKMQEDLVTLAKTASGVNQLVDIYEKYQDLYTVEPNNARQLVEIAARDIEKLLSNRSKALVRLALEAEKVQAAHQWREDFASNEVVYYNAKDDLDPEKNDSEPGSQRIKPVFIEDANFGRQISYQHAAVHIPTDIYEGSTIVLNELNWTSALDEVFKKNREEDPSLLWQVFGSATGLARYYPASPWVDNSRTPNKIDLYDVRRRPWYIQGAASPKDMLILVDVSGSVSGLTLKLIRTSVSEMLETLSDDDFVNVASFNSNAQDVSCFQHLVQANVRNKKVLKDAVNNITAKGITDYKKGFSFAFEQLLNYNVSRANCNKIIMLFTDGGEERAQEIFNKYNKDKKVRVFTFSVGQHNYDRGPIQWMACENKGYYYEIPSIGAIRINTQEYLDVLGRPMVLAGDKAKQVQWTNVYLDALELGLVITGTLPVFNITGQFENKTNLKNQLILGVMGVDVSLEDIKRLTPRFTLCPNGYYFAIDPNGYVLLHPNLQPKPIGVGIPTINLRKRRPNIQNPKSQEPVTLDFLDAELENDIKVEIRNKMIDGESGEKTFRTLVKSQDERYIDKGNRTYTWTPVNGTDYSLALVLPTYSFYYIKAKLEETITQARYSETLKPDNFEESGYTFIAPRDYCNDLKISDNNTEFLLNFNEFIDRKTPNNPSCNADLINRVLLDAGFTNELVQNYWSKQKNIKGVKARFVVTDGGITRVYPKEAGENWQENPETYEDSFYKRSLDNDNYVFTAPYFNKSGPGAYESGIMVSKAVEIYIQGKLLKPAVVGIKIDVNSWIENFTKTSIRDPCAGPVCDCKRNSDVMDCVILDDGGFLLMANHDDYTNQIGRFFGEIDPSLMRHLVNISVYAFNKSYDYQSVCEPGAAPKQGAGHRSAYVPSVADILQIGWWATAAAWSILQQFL
T1 sequence (P54289 947-1103 partner limits assumed): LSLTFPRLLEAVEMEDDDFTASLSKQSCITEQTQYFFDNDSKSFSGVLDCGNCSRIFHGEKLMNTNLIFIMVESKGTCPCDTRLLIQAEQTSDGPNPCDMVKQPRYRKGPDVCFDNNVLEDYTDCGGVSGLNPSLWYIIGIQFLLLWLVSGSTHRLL

As a reminder, the IC50 is the concentration that gives 50% inhibition. On to `CNC(=O)c1oc2ccc(S(=O)(=O)N3CCCCCC3)cc2c1C` [compound 145], for which, under setting [1], the IC50 is < 20 µM.

In the case of `Cc1c(C(=O)NC2CCCC2)[nH]c2ccc(S(=O)(=O)N3CCC(C)CC3)cc12` [compound 146], the IC50 under setting [1] is < 5 µM. On the same count and under the same terms, the figure for `CC1CCN(C(=O)c2cc3cc(S(=O)(=O)N4CCC(C)CC4)ccc3[nH]2)CC1` [compound 147] is < 5 µM. For the molecule `Cc1c(C(=O)NC2CCCC2)oc2ccc(S(=O)(=O)N3CCC(C)CC3)cc12` [compound 148], under setting [1], the IC50 was < 5 µM. Still for that read-out and setting: the figure for `Cc1c(C(=O)NCC2CCCO2)oc2ccc(S(=O)(=O)N3CCOCC3)cc12` (stereo not drawn) [compound 149] is < 20 µM; for `CCNC(=O)c1oc2ccc(S(=O)(=O)N3CCCCCC3)cc2c1C` [compound 150] it is 5 to 20 µM. Same read-out and setting: the figure for `Cc1ccc(S(=O)(=O)Nc2ccc3[nH]c(C(=O)NC4CC4)cc3c2)cc1` [compound 151] is 5 to 20 µM. Still for that read-out and setting: in the case of `Cc1c(C(=O)N2CCN(C)CC2)oc2ccc(S(=O)(=O)N3CCCCCC3)cc12` [compound 152] it was 5 to 20 µM. In the case of `Cc1c(C(=O)N2CCCCC2C)oc2ccc(S(=O)(=O)N3CC(C)CC(C)C3)cc12` (stereo not drawn) [compound 153], under setting [1], the IC50 is < 5 µM. Same read-out and setting: in the case of `Cc1c(C(=O)NCc2ccc(F)cc2)oc2ccc(S(=O)(=O)N3CCC(C)CC3)cc12` [compound 154] it was 5 to 20 µM; in that of `CNC(=O)c1oc2ccc(S(=O)(=O)N3CCCCC3)cc2c1C` [compound 155], < 20 µM.

As to `CC1CC(C)CN(S(=O)(=O)c2ccc3oc(C(=O)N4CCC5(CC4)OCCO5)cc3c2)C1` (stereo not drawn) [compound 156], the IC50 is < 5 µM.

On to `Cc1c(C(=O)NC(C)C)oc2ccc(S(=O)(=O)N3CCC(F)CC3)cc12` [compound 157], for which the IC50 under setting [1] is 5 to 20 µM. The same measure, in the same setting: the figure for `CCOC(=O)N1CCN(C(=O)c2cc3cc(S(=O)(=O)N4CCC(C)CC4)ccc3o2)CC1` [compound 158] is < 20 µM; for `Cc1c(C(=O)N(C(C)C)C(C)C)oc2ccc(S(=O)(=O)N3CCCCCC3)cc12` [compound 159] it is 5 to 20 µM. On the same count and under the same terms, in the case of `Cc1c(C(=O)N2CCN(C)CC2)[nH]c2ccc(S(=O)(=O)N3CC(C)CC(C)C3)cc12` (stereo not drawn) [compound 160] it was 5 to 20 µM.

Turning to `Cc1c(C(=O)N2CCC3(CC2)OCCO3)oc2ccc(S(=O)(=O)N3CCCCCC3)cc12` [compound 161], the IC50 was 5 to 20 µM.

With `CCN(CC)C(=O)c1oc2ccc(S(=O)(=O)N3CCOCC3)cc2c1C` [compound 162], under setting [1], the IC50 is < 20 µM. On the same count and under the same terms, in the case of `Cc1c(C(=O)N2CCC(C)CC2)oc2ccc(S(=O)(=O)N3CCOCC3)cc12` [compound 163] it was < 20 µM; in that of `CCN(CC)S(=O)(=O)c1ccc2oc(C(=O)N3CC(C)CC(C)C3)c(C)c2c1` (stereo not drawn) [compound 164], < 5 µM. Still for that read-out and setting: the figure for `CN1CCN(C(=O)c2cc3cc(S(=O)(=O)N4CCCCCC4)ccc3o2)CC1` [compound 165] is 5 to 20 µM.

As for `Cc1c(C(=O)NCC2CCOCC2)[nH]c2ccc(S(=O)(=O)N3CCC(C)CC3)cc12` [compound 166], the IC50 under setting [1] is < 20 µM. Same read-out and setting: in the case of `COc1ccccc1CNC(=O)c1oc2ccc(S(=O)(=O)N3CCOCC3)cc2c1C` [compound 167] it was < 20 µM.

As for `CCN(CC)C(=O)c1[nH]c2ccc(S(=O)(=O)N3CCC(C)CC3)cc2c1C` [compound 168], under setting [1], the IC50 lay within 5 to 20 µM. Turning to `O=C(c1cc2cc(S(=O)(=O)N3CCCCCC3)ccc2o1)N1CCCCCC1` [compound 169], under setting [1], the IC50 is < 5 µM. Still for that read-out and setting: the figure for `CC1CCCN(C(=O)c2cc3cc(S(=O)(=O)N4CCCCCC4)ccc3o2)C1` (stereo not drawn) [compound 170] is < 5 µM. Still for that read-out and setting: the figure for `CC1CCCN(C(=O)c2cc3cc(S(=O)(=O)N4CC(C)CC(C)C4)ccc3[nH]2)C1` (stereo not drawn) [compound 171] is < 5 µM. `Cc1c(C(=O)N2CCC3(CC2)OCCO3)oc2ccc(S(=O)(=O)N3CCCCC3)cc12` [compound 173] had an IC50 of 5 to 20 µM. As for `Cc1c(C(=O)NC2CCCC2)n(C)c2ccc(S(=O)(=O)N3CCC(C)CC3)cc12` [compound 174], the IC50 under setting [1] was < 5 µM.

Take `CCOC(=O)C1CCN(C(=O)c2oc3ccc(S(=O)(=O)N4CCC(C)CC4)cc3c2C)CC1` [compound 176]: the IC50 under setting [1] is < 5 µM. `Cc1c(C(=O)NC2CCCC2)oc2ccc(S(=O)(=O)N3CCCC(C)C3)cc12` (stereo not drawn) [compound 177]: under setting [1], the IC50 is < 5 µM. Same read-out and setting: the figure for `Cc1c(C(=O)N2CCCC2)oc2ccc(S(=O)(=O)N3CCCC(C)C3)cc12` (stereo not drawn) [compound 178] is 5 to 20 µM. Still for that read-out and setting: in the case of `CCN(CC)S(=O)(=O)c1ccc2oc(C(=O)NCC3CCCO3)c(C)c2c1` (stereo not drawn) [compound 179] it was < 20 µM; in that of `Cc1c(C(=O)NCCCN2CCCC2)oc2ccc(S(=O)(=O)N3CC(C)CC(C)C3)cc12` (stereo not drawn) [compound 180], < 5 µM.

In the case of `CCCN(c1ccc2[nH]c(C(=O)NC3CC3)cc2c1)S(=O)(=O)c1ccccc1` [compound 181], the IC50 under setting [1] was 5 to 20 µM.

On to `Cc1c(C(=O)NC2CC2)oc2ccc(S(=O)(=O)NCc3ccc(F)cc3)cc12` [compound 182], for which the IC50 under setting [1] was < 20 µM. `O=C(c1cc2cc(S(=O)(=O)N3CCCCCC3)ccc2o1)N1CCC2(CC1)OCCO2` [compound 183] showed an IC50 of 5 to 20 µM. For the molecule `CC1CC(C)CN(S(=O)(=O)c2ccc3oc(C(=O)N4CCCC4)cc3c2)C1` (stereo not drawn) [compound 184], the IC50 under setting [1] was < 5 µM. The same measure, in the same setting: the figure for `CC1CC(C)CN(S(=O)(=O)c2ccc3[nH]c(C(=O)N(C)Cc4ccccc4)cc3c2)C1` (stereo not drawn) [compound 185] is < 5 µM; for `CCN(CC)C(=O)c1oc2ccc(S(=O)(=O)N(CC)CC)cc2c1C` [compound 186] it is < 20 µM. On the same count and under the same terms, in the case of `Cc1c(C(=O)NC2CCCC(C)C2C)oc2ccc(S(=O)(=O)N3CCOCC3)cc12` (stereo not drawn) [compound 187] it was 5 to 20 µM. `CC1CCN(S(=O)(=O)c2ccc3oc(C(=O)N4CCN(C)CC4)cc3c2)CC1` [compound 188]: under setting [1], the concentration for half-maximal inhibition (IC50) lay within 5 to 20 µM. The same measure, in the same setting: in the case of `Cc1c(C(=O)NCc2ccccc2)oc2ccc(S(=O)(=O)N3CCC(C)CC3)cc12` [compound 189] it was 5 to 20 µM. Still for that read-out and setting: the figure for `CC1CCN(C(=O)c2cc3cc(S(=O)(=O)N4CCCCCC4)ccc3o2)CC1` [compound 190] is < 5 µM; for `CCN(CC)C(=O)c1cc2cc(S(=O)(=O)N3CC(C)CC(C)C3)ccc2n1CC(O)CN1CCN(C)CC1` (stereo not drawn) [compound 191] it is < 5 µM. Same read-out and setting: in the case of `CNC(=O)c1cc2cc(S(=O)(=O)N3CCC(C)CC3)ccc2[nH]1` [compound 192] it was < 5 µM. For the molecule `Cc1c(C(=O)N2CCN(C)CC2)oc2ccc(S(=O)(=O)N3CC(C)CC(C)C3)cc12` (stereo not drawn) [compound 193], the IC50 under setting [1] was in the range of 5 to 20 µM. For the molecule `CC1CCN(C(=O)c2cc3cc(S(=O)(=O)N4CC(C)CC(C)C4)ccc3[nH]2)CC1` (stereo not drawn) [compound 194], the IC50 under setting [1] was < 5 µM. Take `Cc1c(C(=O)N2CCCC(C)C2)oc2ccc(S(=O)(=O)N3CCOCC3)cc12` (stereo not drawn) [compound 195]: the IC50 under setting [1] was < 20 µM. Same read-out and setting: the figure for `CCN(CC)C(=O)c1cc2cc(S(=O)(=O)N3CC(C)CC(C)C3)ccc2[nH]1` (stereo not drawn) [compound 196] is < 5 µM. The same measure, in the same setting: in the case of `Cc1c(C(=O)NCCC2=CCCCC2)oc2ccc(S(=O)(=O)N3CCOCC3)cc12` [compound 197] it was < 20 µM; in that of `CCOC(=O)N1CCN(C(=O)c2[nH]c3ccc(S(=O)(=O)N4CCC(C)CC4)cc3c2C)CC1` [compound 198], 5 to 20 µM. Still for that read-out and setting: the figure for `CCN(CC)C(=O)c1oc2ccc(S(=O)(=O)N3CCCC(C)C3)cc2c1C` (stereo not drawn) [compound 199] is < 5 µM. Consider `Cc1c(C(=O)NCC2COc3ccccc3O2)oc2ccc(S(=O)(=O)N(C)C3CCCCC3)cc12` (stereo not drawn) [compound 200], for which the IC50 under setting [1] was 5 to 20 µM. Regarding `Cc1c(C(=O)NCCc2ccccc2)oc2ccc(S(=O)(=O)N3CCCCCC3)cc12` [compound 201], the IC50 under setting [1] is < 5 µM.

In the case of `CCN(CC)C(=O)c1oc2ccc(S(=O)(=O)N3CCCCC3)cc2c1C` [compound 202], the IC50 under setting [1] lay in the range of 5 to 20 µM.

`Cc1c(C(=O)NCc2ccccn2)oc2ccc(S(=O)(=O)N3CCC(C)CC3)cc12` [compound 203]: the IC50 under setting [1] was 5 to 20 µM. Same read-out and setting: the figure for `Cc1c(C(=O)NC(C)C)oc2ccc(S(=O)(=O)N3CCC(F)(F)CC3)cc12` [compound 204] is 5 to 20 µM; for `Cc1c(C(=O)NCC2CCCO2)oc2ccc(S(=O)(=O)N3CCCC(C)C3)cc12` (stereo not drawn) [compound 205] it is 5 to 20 µM; for `Cc1c(C(=O)N(C)Cc2ccccc2)[nH]c2ccc(S(=O)(=O)N3CCC(C)CC3)cc12` [compound 206] it is < 5 µM. Same read-out and setting: in the case of `Cc1c(C(=O)NC2CC2)oc2ccc(S(=O)(=O)Nc3ccncc3)cc12` [compound 207] it was < 20 µM; in that of `CC1CCN(S(=O)(=O)c2ccc3oc(C(=O)N4CCCCC4C)cc3c2)CC1` (stereo not drawn) [compound 208], < 5 µM; in that of `CC1CC(C)CN(S(=O)(=O)c2ccc3[nH]c(C(=O)NC4CC4)cc3c2)C1` (stereo not drawn) [compound 209], < 5 µM. The same measure, in the same setting: in the case of `Cc1c(C(=O)NC2CC2)oc2ccc(S(=O)(=O)N3CCCC3)cc12` [compound 210] it was < 20 µM; in that of `CCOC(=O)N1CCN(C(=O)c2oc3ccc(S(=O)(=O)N4CCCCCC4)cc3c2C)CC1` [compound 211], < 5 µM. For `CCNC(=O)c1oc2ccc(S(=O)(=O)N3CC(C)CC(C)C3)cc2c1C` (stereo not drawn) [compound 212], the IC50 under setting [1] was < 5 µM. On the same count and under the same terms, in the case of `Cc1c(C(=O)N(C)Cc2ccccc2)oc2ccc(S(=O)(=O)N3CCCC(C)C3)cc12` (stereo not drawn) [compound 213] it was < 5 µM.

Consider `CNC(=O)c1oc2ccc(S(=O)(=O)N3CC(C)CC(C)C3)cc2c1C` (stereo not drawn) [compound 214], for which the IC50 under setting [1] was < 5 µM. As for `CCN(CC)S(=O)(=O)c1ccc2oc(C(=O)NC3CCC(C)CC3)c(C)c2c1` (stereo not drawn) [compound 215], under setting [1], the IC50 was 5 to 20 µM. The same measure, in the same setting: in the case of `CNC(=O)c1[nH]c2ccc(S(=O)(=O)N3CC(C)CC(C)C3)cc2c1C` (stereo not drawn) [compound 216] it was < 5 µM. The same measure, in the same setting: the figure for `CC1CC(C)CN(S(=O)(=O)c2ccc3[nH]c(C(=O)N(C(C)C)C(C)C)cc3c2)C1` (stereo not drawn) [compound 217] is < 5 µM; for `CC(C)NC(=O)c1cc2cc(S(=O)(=O)N3CCCCCC3)ccc2o1` [compound 218] it is 5 to 20 µM.

For the origin of these results see patent US8211935B2, “Heterocyclic derivatives for modulation of calcium channels” (Vertex Pharmaceuticals Incorporated, priority 2004, dated 2012).
